Measurements taken from patent US6730697B2, “Dihydrothiaphenanthrenecarbonylguanidines: composition, process of making, and use as medicament or diagnostic aid” (Aventis Pharma Deutschland GmbH, priority 2002, dated 2004).
Structures can show the parent of a compound that is named as a salt.

Biological target: T1, human NHE-1 (Homo sapiens, UniProt P19634)
T1 construct: expressed in transfected cells; host or cells: LAP-1 cells (parental line without endogenous NHE activity, from Prof. Pouysségur, Nice), G418-selected transfectants
T1 sequence (P19634 whole entry): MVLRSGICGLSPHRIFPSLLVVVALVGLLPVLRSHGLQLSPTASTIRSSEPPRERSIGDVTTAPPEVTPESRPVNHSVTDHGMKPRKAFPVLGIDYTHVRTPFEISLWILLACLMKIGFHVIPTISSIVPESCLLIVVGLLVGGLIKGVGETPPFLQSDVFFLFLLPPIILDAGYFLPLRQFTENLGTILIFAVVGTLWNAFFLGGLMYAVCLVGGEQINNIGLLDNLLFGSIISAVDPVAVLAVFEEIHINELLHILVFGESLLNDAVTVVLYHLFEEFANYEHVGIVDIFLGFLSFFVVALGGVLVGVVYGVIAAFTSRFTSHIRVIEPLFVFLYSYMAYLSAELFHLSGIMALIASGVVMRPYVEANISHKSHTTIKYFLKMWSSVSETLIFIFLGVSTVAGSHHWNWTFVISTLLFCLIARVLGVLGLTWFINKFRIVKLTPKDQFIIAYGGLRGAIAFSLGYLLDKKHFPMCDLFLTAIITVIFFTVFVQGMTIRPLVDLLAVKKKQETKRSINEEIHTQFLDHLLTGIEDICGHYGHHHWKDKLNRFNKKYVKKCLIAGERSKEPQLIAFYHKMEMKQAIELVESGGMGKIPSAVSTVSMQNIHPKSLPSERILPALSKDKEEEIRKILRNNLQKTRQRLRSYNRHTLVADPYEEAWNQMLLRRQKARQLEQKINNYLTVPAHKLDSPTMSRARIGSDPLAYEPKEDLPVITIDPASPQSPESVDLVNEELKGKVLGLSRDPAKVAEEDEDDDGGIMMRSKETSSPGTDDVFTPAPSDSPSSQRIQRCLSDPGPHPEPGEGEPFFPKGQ
Test: FLIPR assay for NHE-1 inhibition by recovery of pHi in transfected cell lines
Format: cell-based
Conditions: transfected LAP-1 cell line expressing human NHE-1, BCECF fluorescence
Description: The NHE-1 inhibition IC50 [nM] was determined as follows: FLIPR Assay for Determining NHE-1 Inhibitors by Measurement of the Recovery in pHi in Transfected Cell Lines Which Express Human NHE-1 The assay is carried out in an FLIPR (fluorometric imaging plate reader) with black-walled 96-well microtiter plates with clear bases. […] [The growth medium for the transfected cells (Iscove +10% fetal calf serum) additionally contains G418 as selection antibiotic in order to ensure the presence of the transfected sequences.] The actual assay starts with the removal of the growth medium and addition of 100 μl of loading buffer per well (5 μM BCECF-AM [2′, 7′-bis(carboxyethyl)-5-(and-6)-carboxyfluorescein, acetoxymethyl ester] in 20 mM NH4Cl, 115 mM choline chloride, 1 mM MgCl2, 1 mM CaCl2, 5 mM KCl, 20 mM HEPES, 5 mM glucose; pH 7.4 [adjusted with KOH]). The cells are then incubated at 37° C. for 20 minutes. This incubation leads to loading of the cells with the fluorescent dye whose fluorescence intensity depends on pHi, and with NH4Cl which makes the cells slightly alkaline. [The nonfluorescent dye precursor BCECF-AM is, as ester, membrane-permeable. The actual dye BCECF is not membrane-permeable but is liberated inside cells by esterases.] After this incubation for 20 minutes, the loading buffer which contains NH4Cl and free BCECF-AM is removed by washing three times in a cell washer (Tecan Columbus) with in each case 400 μl of washing buffer (133.8 mM choline chloride, 4.7 mM KCl, 1.25 mM MgCl2, 1.25 mM CaCl2, 0.97 mM K2HPO4, 0.23 mM KH2PO4, 5 mM HEPES, 5 mM glucose; pH 7.4 [adjusted with KOH]). The residual volume remaining in the wells is 90 μl (50-125 μl possible). This washing step removes the free BCECF-AM and results, as a consequence of the removal of the external NH4^+ ions, in intracellular acidification (˜pHi 6.3-6.4). Since the equilibrium of intracellular NH4^+ with NH3 and H^+ is disturbed by the removal of the extracellular NH4^+ and by the subsequent instantaneous passage of the NH3 through the cell membrane, the washing process results in H^+ remaining inside the cells, which is the cause of the intracellular acidification. This may eventually lead to cell death if it persists long enough. It is important at this point that the washing buffer is sodium-free (<1 mM) because extracellular sodium ions would lead to an instantaneous recovery of the pHi through the activity of the cloned NHE isoforms. It is likewise important for all the buffers used (loading buffer, washing buffer, recovery buffer) not to contain any HCO3^− ions, because the presence of bicarbonate would lead to activation of interfering bicarbonate-dependent pHi regulatory systems present in the parental LAP-1 cell line. The microtiter plates with the acidified cells are then (up to 20 minutes after the acidification) transferred to the FLIPR. In the FLIPR, the intracellular fluorescent dye is excited by light with a wavelength of 488 nm generated by an argon laser, and the measured parameters (laser power, illumination time and aperture of the CCD camera incorporated in the FLIPR) are chosen so that the average fluorescence signal per well is between 30 000 and 35 000 relative fluorescence units. The actual measurement in the FLIPR starts with a photograph being taken by the CCD camera every two seconds under software control. After ten seconds, the recovery of the intracellular pH is initiated by adding 90 μl of recovery buffer (133.8 mM NaCl, 4.7 mM KCl, 1.25 mM MgCl2, 1.25 mM CaCl2, 0.97 mM K2HPO4, 0.23 mM KH2PO4, 10 mM HEPES, 5 mM glucose; pH 7.4 [adjusted with NaOH]) by means of the 96-well pipettor incorporated in the FLIPR. Positive control wells (100% NHE activity) are those to which pure recovery buffer is added, while negative controls (0% NHE activity) receive washing buffer. Recovery buffer with twice the concentration of test substance is added to all the other wells. Measurement in the FLIPR terminates after 60 measurements (two minutes). […]

Row | SMILES | IC50
1 | Cc1cc2c(cc1C(=O)NC(=N)N)S(=O)(=O)Cc1ccc3ccccc3c1-2 [Example 2, N-(2-Methyl-5,5-dioxo-5,6-dihydro-5-thiabenzo[c]phenanthrene-3-carbonyl)guanidinium Formate] | 0.0242 µM
2 | Cc1cc2c(cc1C(=O)NC(=N)N)S(=O)(=O)Cc1c(F)cccc1-2 [Example 6, N-(1-Fluoro-6-methyl-9,9-dioxo-9,10-dihydro-9-thiaphenanthrene-7-carbonyl)guanidinium Formate] | 0.0165 µM
3 | COc1ccc2c(c1)CS(=O)(=O)c1cc(C(=O)NC(=N)N)c(C)cc1-2 [Example 8, N-(2-Methoxy-6-methyl-9,9-dioxo-9,10-dihydro-9-thiaphenanthrene-7-carbonyl)guanidinium Formate] | 0.0102 µM
4 | Cc1cc2c(cc1C(=O)NC(=N)N)S(=O)(=O)Cc1c(Cl)cccc1-2 [Example 9, N-(1-Chloro-6-methyl-9,9-dioxo-9,10-dihydro-9-thiaphenanthrene-7-carbonyl)guanidinium Formate] | 0.0139 µM
5 | Cc1cc2c(cc1C(=O)NC(=N)N)S(=O)(=O)Cc1cccc(C)c1-2 [Example 10, N-(4,6-Dimethyl-9,9-dioxo-9,10-dihydro-9-thiaphenanthrene-7-carbonyl)-guanidinium Formate] | 0.0677 µM

Next, values leading:

Row | IC50 | SMILES
6 | 0.0156 µM | Cc1cc2c(cc1C(=O)NC(=N)N)S(=O)(=O)Cc1ccccc1-2 [Example 1, N-(6-Methyl-9,9-dioxo-9,10-dihydro-9-thiaphenanthrene-7-carbonyl)guanidinium Formate]
7 | 0.0086 µM | Cc1ccc2c(c1)-c1cc(C)c(C(=O)NC(=N)N)cc1S(=O)(=O)C2 [Example 3, N-(3,6-Dimethyl-9,9-dioxo-9,10-dihydro-9-thiaphenanthrene-7-carbonyl)-guanidinium Formate]
8 | 0.0108 µM | Cc1cc2c(cc1C(=O)NC(=N)N)S(=O)(=O)Cc1cc(Cl)ccc1-2 [Example 4, N-(2-Chloro-6-methyl-9,9-dioxo-9,10-dihydro-9-thiaphenanthrene-7-carbonyl)guanidinium Formate]
9 | 0.0156 µM | Cc1cc2c(cc1C(=O)NC(=N)N)S(=O)(=O)Cc1ccc(F)cc1-2 [Example 5, N-(3-Fluoro-6-methyl-9,9-dioxo-9,10-dihydro-9-thiaphenanthrene-7-carbonyl)guanidinium Formate]
10 | 0.0117 µM | Cc1cc2c(cc1C(=O)NC(=N)N)S(=O)(=O)Cc1ccc(Cl)cc1-2 [Example 7, N-(3-Chloro-6-methyl-9,9-dioxo-9,10-dihydro-9-thiaphenanthrene-7-carbonyl)guanidinium Formate]
11 | 0.0195 µM | Cc1ccc2c(c1)CS(=O)(=O)c1cc(C(=O)NC(=N)N)c(C)cc1-2 [Example 11, N-(2,6-Dimethyl-9,9-dioxo-9,10-dihydro-9-thiaphenanthrene-7-carbonyl)-guanidinium Formate]
